Assay results taken from patent US7112601B2, “Cycloalkyl heterocycles for treating hepatitis C virus” (priority 2003, dated 2006).

Tested on: HCV
Assay: not given
Conditions: combination therapy, HCV patients (Poynard et al. Lancet 1998); cited from earlier work

Question: With alpha-interferon and ribavirin as the compound, how does the sustained efficacy read?
Answer: 40 % of patients

Target: T1, HCV NS5B RdRp (Hepatitis C virus genotype 1b, UniProt Q9WMX2)
T1 construct: The protein was expressed with an 18 amino acid C-terminal truncation to enhance the solubility; made in house; host or cells: E. coli BL21(DE3)
Assay: HCV NS5B RdRp enzyme inhibition assay
Assay type: biochemical
Conditions: not given
Procedure: HCV NS5B RdRp cloning, expression, and purification. The cDNA encoding the NS5B protein of HCV, genotype 1b, was cloned into the pET21a expression vector. The protein was expressed with an 18 amino acid C-terminal truncation to enhance the solubility. The E. coli competent cell line BL21(DE3) was used for expression of the protein. Cultures were grown at 37° C. for ˜4 hours until the cultures reached an optical density of 2.0 at 600 nm. The cultures were cooled to 20° C. and induced with 1 mM IPTG. Fresh ampicillin was added to a final concentration of 50 ug/ml and the cells were grown overnight at 20° C.
Cell pellets (3L) were lysed for purification to yield 15–24 mgs of purified NS5B. The lysis buffer consisted of 20 mM Tris-HCl, pH 7.4, 500 mM NaCl, 0.5% triton X-100, 1 mM DTT, 1 mM EDTA, 20% glycerol, 0.5 mg/ml lysozyme, 10 mM MgCl2, 15 ug/ml deoxyribonuclease I, and Complete TM protease inhibitor tablets (Roche). After addition of the lysis buffer, frozen cell pellets were resuspended using a tissue homogenizer. To reduce the viscosity of the sample, aliquots of the lysate were sonicated on ice using a microtip attached to a Branson sonicator. The sonicated lysate was centrifuged at 100,000×g for 1 hr at 4° C. and filtered through a 0.2 μm filter unit (Corning).
The protein was purified using three sequential chromatography steps: Heparin sepharose CL-6B, polyU sepharose 4B, and Hitrap SP sepharose (Pharmacia). The chromatography buffers were identical to the lysis buffer but contained no lysozyme, deoxyribonuclease I, MgCl2 or protease inhibitor and the NaCl concentration of the buffer was adjusted according to the requirements for charging the protein onto the column. Each column was eluted with a NaCl gradient which varied in length from 5–50 column volumes depending on the column type. After the final chromatography step, the resulting purity of the enzyme is >90% based on SDS-PAGE analysis. The enzyme was aliquoted and stored at −80° C.
HCV NS5B RdRp enzyme assay. HCV RdRp genotype 1b assays were run in assay buffer composed of 20 mM Tris-HCl, pH 7.5, 2.5 mM KCl, 5 mM MgCl2, 1 mM DTT, 1.6 U RNAse inhibitor (Promega N2515), in 96 well plates (Falcon 3918). All compounds were serially diluted in DMSO and diluted further in assay buffer such that the final concentration of DMSO in the assay was 2%. Compounds were serially diluted (3-fold each time) for a 7 point inhibition analysis. HCV RdRp genotype 1b enzyme was used at a final concentration of 28 nM. A polyA template was used at 28 nM, and the oligo-dT12-18 primer was used at 840 nM final concentration. Preannealed primer and template were obtained commercially (Amersham 27-787802). ^3H-UTP was used at 0.125 μCi (1 μM total UTP). Reaction was initiated by the addition of enzyme. Reactions were incubated at 30° C. for 45 min, and stopped by adding 30 ul of 20% ice cold TCA. Plates were chilled for 30 minutes and harvested onto Unifilter-96, GF/B plates (Packard, 6005177) using a Packard FilterMate Cell Harvester. The harvest plates were prewashed 3 times, 200 ul/well, with 100 mM NaPPi. Harvested filters were washed 30 times, 200 ul/well, with distilled water followed by ethanol. Filter plates were dried, and 30 ul/well microscint-20 was added. Plates were read on a Packard Top Count NXT.
The IC50 values for compounds were determined using […] different [I], combined with 7 nM enzyme, 800 ng of the template-primer polyC/oligoG12 (1:5 molar ratio), and 0.7 uM of ^3H GTP containing 1 uCi. The observed fractional activity (fa=vi/vo) was used in the equation IC50=[I]/(1/fa-1) to determine a single point IC50 value. Typically, the single point IC50 values derived from [I] that produced fractional activities in the range of 0.1 to 0.8 relative to the uninhibited control were averaged to calculate the IC50 value for each compound.

T1 sequence (Q9WMX2 2420-2992): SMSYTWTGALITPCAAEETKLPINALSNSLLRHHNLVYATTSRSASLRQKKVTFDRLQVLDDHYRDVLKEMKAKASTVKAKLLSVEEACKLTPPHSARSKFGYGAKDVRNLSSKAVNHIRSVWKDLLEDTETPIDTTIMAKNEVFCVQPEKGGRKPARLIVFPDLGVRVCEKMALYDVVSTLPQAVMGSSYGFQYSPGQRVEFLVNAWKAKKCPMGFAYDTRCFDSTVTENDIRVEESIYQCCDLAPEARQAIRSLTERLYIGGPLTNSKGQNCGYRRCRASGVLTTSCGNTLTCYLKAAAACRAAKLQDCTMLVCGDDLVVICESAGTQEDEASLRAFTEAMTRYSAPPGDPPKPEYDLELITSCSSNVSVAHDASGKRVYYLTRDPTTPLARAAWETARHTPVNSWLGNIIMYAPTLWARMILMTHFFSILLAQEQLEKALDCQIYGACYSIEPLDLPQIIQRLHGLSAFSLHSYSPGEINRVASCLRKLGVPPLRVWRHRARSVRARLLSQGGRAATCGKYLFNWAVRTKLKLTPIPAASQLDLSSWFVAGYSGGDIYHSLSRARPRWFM

Question: With `COC(=O)CCc1cc(C2CCCCC2)n(-c2ccc(OCc3ccccc3)cc2)n1` [Example 40, Methyl 3-{1-[4-(benzyloxy)phenyl]-5-cyclohexyl-1H-pyrazol-3-yl}propanoate] as the compound, how does the IC50 read?
Answer: > 25 µM

Question: Which IC50 does the source give for `COc1ccc(-c2ccc(Cl)cc2)c(COc2ccc(-c3cc(/C=C/C(=O)O)nn3C3CCCCC3)cc2)c1` [Example 5, (2E)-3-(5-{4-[(4′-chloro-4-methoxy-1,1′-biphenyl-2-yl)methoxy]phenyl}-1-cyclohexyl-1H-pyrazol-3-yl)-2-propenoic acid] here?
Answer: 0.45 µM

Question: For `CCOC(=O)/C(C)=C/c1cn(C2CCCCC2)c(-c2ccc(OCc3ccccc3)cc2)n1` [Example 49, Ethyl (2E)-3-{2-[4-(benzyloxy)phenyl]-1-cyclohexyl-1H-imidazol-4-yl}-2-methyl-2-propenoate], which IC50 is on record?
Answer: > 25 µM

Question: For `CCOC(=O)/C(C)=C/c1cc(-c2ccc(OCc3cc(C(=O)OC(C)(C)C)ccc3Br)cc2)n(C2CCCCC2)n1` [Example 10, Ethyl (2E)-3-(5-{4-[(t-butyl-2-bromo-5-phenylcarboxylate)methoxy]phenyl}-1-cyclohexyl-1H-pyrazol-3-yl)-2-methyl-2-propenoate], which IC50 is on record?
Answer: > 25 µM

Question: Which IC50 does the source give for `COc1ccc(-c2ccc(Cl)cc2)c(COc2ccc(-n3nc(CCC(=O)O)cc3C3CCCCC3)cc2)c1` [Example 43, 3-(1-{4-[(4′-chloro-4-methoxy-1,1′-biphenyl-2-yl)methoxy]phenyl}-5-cyclohexyl-1H-pyrazol-3-yl)propanoic acid] here?
Answer: 0.31 µM

Question: With `CNC(=O)c1ccc(-c2ccc(Cl)cc2)c(COc2ccc(-c3cc(/C=C(\C)C(=O)O)nn3C3CCCCC3)cc2)c1` [Example 13, (2E)-3-(5-{4-[(4′-Chloro-4-N-methylcarbamoyl-1,1′-biphenyl-2-yl)methoxy]phenyl}-1-cyclohexyl-1H-pyrazol-3-yl)-2-methyl-2-propenoic acid] as the compound, how does the IC50 read?
Answer: 0.38 µM

Question: Which IC50 does the source give for `O=C(O)C#Cc1cc(-c2ccc(OCc3ccccc3)cc2)n(C2CCCCC2)n1` [Example 19, 3-{5-[4-(benzyloxy)phenyl]-1-cyclohexyl-1H-pyrazol-3-yl}-2-propynoic acid] here?
Answer: 4.9 µM

Question: For `CCOC(=O)/C(C)=C/c1cc(C2CCCCC2)n(-c2ccc(OCc3ccccc3)cc2)n1` [Example 34, Ethyl (2E)-3-{1-[4-(benzyloxy)phenyl]-5-cyclohexyl-1H-pyrazol-3-yl}-2-methyl-2-propenoate], which IC50 is on record?
Answer: > 25 µM

Question: Which IC50 does the source give for `COC(=O)CCc1cc(-c2ccc(OCc3ccccc3)cc2)n(C2CCCCC2)n1` [Example 14, Methyl 3-{5-[4-(benzyloxy)phenyl]-1-cyclohexyl-1H-pyrazol-3-yl}propanoate] here?
Answer: > 25 µM

Question: With `O=C(O)/C=C/c1cn(C2CCCCC2)c(-c2ccc(OCc3ccccc3)cc2)n1` [Example 45, (2E)-3-{2-[4-(benzyloxy)phenyl]-1-cyclohexyl-1H-imidazol-4-yl}-2-propenoic acid] as the compound, how does the IC50 read?
Answer: 6.6 µM

Question: For `CNC(=O)c1ccc(-c2ccc(Cl)cc2)c(COc2ccc(-c3nc(/C=C(\C)C(=O)OC(C)(C)C)cn3C3CCCCC3)cc2)c1` [Example 53, Butoxy^t (2E)-3-(2-{4-[(4′-chloro-4-N-methylcarbamoyl-1,1′-biphenyl-2-yl)methoxy]phenyl}-1-cyclohexyl-1H-imidazol-4-yl)-2-methyl-2-propenoate], which IC50 is on record?
Answer: > 25 µM

Question: With `COc1ccc(-c2ccc(Cl)cc2)c(COc2ccc(-n3nc(/C=C/C(=O)O)cc3C3CCCCC3)cc2)c1` [Example 33, (2E)-3-(1-{4-[(4′-chloro-4-methoxy-1,1′-biphenyl-2-yl)methoxy]phenyl}-5-cyclohexyl-1H-pyrazol-3-yl)-2-propenoic acid] as the compound, how does the IC50 read?
Answer: 2.4 µM

Question: Which IC50 does the source give for `COC(=O)/C=C/c1nn(C2CCCCC2)c(-c2ccc(OCc3ccccc3)cc2)c1Br` [Example 23, Methyl (2E)-3-{5-[4-(benzyloxy)phenyl]-4-bromo-1-cyclohexyl-1H-pyrazol-3-yl}-2-propenoate] here?
Answer: > 25 µM

Question: With `CCOC(=O)C#Cc1cc(-c2ccc(OCc3ccccc3)cc2)n(C2CCCCC2)n1` [Example 18, Ethyl 3-{5-[4-(benzyloxy)phenyl]-1-cyclohexyl-1H-pyrazol-3-yl}-2-propynoate] as the compound, how does the IC50 read?
Answer: > 25 µM

Question: Which IC50 does the source give for `COc1ccc(-c2ccc(Cl)cc2)c(COc2ccc(-c3nc(/C=C(\C)C(=O)O)cn3C3CCCCC3)cc2)c1` [Example 52, (2E)-3-(2-{4-[(4′-chloro-4-methoxy-1,1′-biphenyl-2-yl)methoxy]phenyl}-1-cyclohexyl-1H-imidazol-4-yl)-2-methyl-2-propenoic acid] here?
Answer: 2.5 µM

Question: With `COC(=O)/C=C/c1cc(-c2ccc(OCc3cc(OC)ccc3-c3ccc(Cl)cc3)cc2)n(C2CCCCC2)n1` [Example 4, Methyl (2E)-3-(5-{4-[(4′-chloro-4-methoxy-1,1′-biphenyl-2-yl)methoxy]phenyl}-1-cyclohexyl-1H-pyrazol-3-yl)-2-propenoate] as the compound, how does the IC50 read?
Answer: > 25 µM

Question: Which IC50 does the source give for `CCOC(=O)/C(C)=C/c1cn(C2CCCCC2)c(-c2ccc(OCc3cc(OC)ccc3-c3ccc(Cl)cc3)cc2)n1` [Example 51, Ethyl (2E)-3-(2-{4-[(4′-chloro-4-methoxy-1,1′-biphenyl-2-yl)methoxy]phenyl}-1-cyclohexyl-1H-imidazol-4-yl)-2-methyl-2-propenoate] here?
Answer: > 25 µM

Question: For `O=C(O)CCc1cc(C2CCCCC2)n(-c2ccc(OCc3ccccc3)cc2)n1` [Example 41], which IC50 is on record?
Answer: 10 µM

Question: Which IC50 does the source give for `COc1ccc(-c2ccc(Cl)cc2)c(COc2ccc(-c3cc(C#CC(=O)O)nn3C3CCCCC3)cc2)c1` [Example 21, 3-(5-{4-[(4′-chloro-4-methoxy-1,1′-biphenyl-2-yl)methoxy]phenyl}-1-cyclohexyl-1H-pyrazol-3-yl)-2-propynoic acid] here?
Answer: 2.3 µM

Question: Which IC50 does the source give for `CCOC(=O)/C(C)=C/c1cc(C2CCCCC2)n(-c2ccc(OCc3cc(OC)ccc3-c3ccc(Cl)cc3)cc2)n1` [Example 36, Ethyl (2E)-3-(1-{4-[(4′-chloro-4-methoxy-1,1′-biphenyl-2-yl)methoxy]phenyl}-5-cyclohexyl-1H-pyrazol-3-yl)-2-methyl-2-propenoate] here?
Answer: > 25 µM

Question: For `CCOC(=O)c1cc(-c2ccc(OCc3ccccc3)cc2)n(C2CCCCC2)n1` [Example 1, Ethyl 1-cyclohexyl-5-(4-benzyloxyphenyl)-1H-pyrazole-3-carboxylate], which IC50 is on record?
Answer: > 25 µM

Question: For `C/C(=C\c1cn(C2CCCCC2)c(-c2ccc(OCc3ccccc3)cc2)n1)C(=O)O` [Example 50, (2E)-3-{2-[4-(benzyloxy)phenyl]-1-cyclohexyl-1H-imidazol-4-yl}-2-methyl-2-propenoic acid], which IC50 is on record?
Answer: 15 µM

Question: With `C/C(=C\c1cc(-c2ccc(OCc3ccccc3)cc2)n(C2CCCCC2)n1)C(=O)O` [Example 7, (2E)-3-{5-[4-(benzyloxy)phenyl]-1-cyclohexyl-1H-pyrazol-3-yl}-2-methyl-2-propenoic acid] as the compound, how does the IC50 read?
Answer: 10 µM

Question: For `COC(=O)/C=C/c1nn(C2CCCCC2)c(-c2ccc(OCc3ccccc3)cc2)c1-c1ccccc1` [Example 25, Methyl (2E)-3-{5-[4-(benzyloxy)phenyl]-1-cyclohexyl-4-phenyl-1H-pyrazol-3-yl}-2-propenate], which IC50 is on record?
Answer: > 25 µM
